Patent publication US20260345517A1, “DOSAGE REGIMENS FOR TREATING STARGARDT DISEASE” (Alkeus Pharmaceuticals, Inc., priority 2024, published 2026)

Assay: TEASE-1: safety and adverse events
Assay type: in vivo, human
Method: The Tolerability and Effects of gildeuretinol acetate in Stargardt Disease (Clinical trial group 1 also known as TEASE-1) was a 24-month, multicenter, double-masked, placebo-controlled trial designed to evaluate the efficacy and safety of daily oral gildeuretinol acetate in slowing the growth of atrophic retinal lesions in Stargardt disease patients. The trial was conducted at multiple sites in the United States (NCT02402660).
Patients 12 years or older, clinically diagnosed with Stargardt disease, with at least one ABCA4 mutation, at least one eye presenting with well-demarcated areas of reduced fundus autofluorescence, and with any visual acuity, were eligible.
Patients were randomized to gildeuretinol acetate 14 mg capsules, gildeuretinol acetate 24 mg capsules, or placebo capsules, to be taken once daily for one year. After one year, 50% of randomly selected patients receiving placebo were crossed over in a 1:1 ratio to gildeuretinol acetate 14 mg capsules or gildeuretinol acetate 24 mg capsules for a second year.
Gildeuretinol acetate and placebo capsules were identical appearing capsules. Patients were advised to avoid vitamin A-containing supplements and liver-based products. Fruits and vegetables contain beta-carotene, not preformed vitamin A, and could be consumed without limitation. Trial visits occurred at 8 weeks and 6, 12, 18, and 24 months following screening and randomization.

In the case of `CC(=O)OC/C=C(C)/C=C/C=C(C)/C=C/C1=C(C)CCCC1(C)C` [gildeuretinol acetate, C20-D3-retinol acetate], the Inflammation (24 mg, N = 15) is reported as 0 patients (%), the Influenza (24 mg, N = 15) is reported as 1 (6.7) patients (%) and the Insomnia (24 mg, N = 15) is reported as 0 patients (%). The Intracranial pressure increased (24 mg, N = 15) was 1 (6.7) patients (%), the Irritability (24 mg, N = 15) was 0 patients (%) and the Jaw operation (24 mg, N = 15) was 1 (6.7) patients (%). For the same molecule, the Knee arthroplasty (24 mg, N = 15) was 0 patients (%), the Laryngitis (24 mg, N = 15) was 0 patients (%) and the Lip swelling (24 mg, N = 15) was 0 patients (%). The “Low density lipoprotein increased” value (24 mg, N = 15) was 0 patients (%), the Muscle spasms (24 mg, N = 15) was 0 patients (%) and the Muscle strain (24 mg, N = 15) was 0 patients (%). The Musculoskeletal pain (24 mg, N = 15) was 1 (6.7) patients (%), the Nasopharyngitis (24 mg, N = 15) was 3 (20.0) patients (%) and the Nausea (24 mg, N = 15) was 1 (6.7) patients (%). The Neck pain (24 mg, N = 15) was 0 patients (%), the Nephrolithiasis (24 mg, N = 15) was 0 patients (%) and the Nerve compression (24 mg, N = 15) was 0 patients (%). For the same molecule, the Neuralgia (24 mg, N = 15) was 0 patients (%), the Obsessive-compulsive disorder (24 mg, N = 15) was 0 patients (%) and the Oropharyngeal pain (24 mg, N = 15) was 3 (20.0) patients (%). The Osteoporosis (24 mg, N = 15) was 1 (6.7) patients (%), the Pain (24 mg, N = 15) was 0 patients (%) and the Pain in extremity (24 mg, N = 15) was 2 (13.3) patients (%). For the same molecule, the Pain in jaw (24 mg, N = 15) was 0 patients (%), the Peripheral coldness (24 mg, N = 15) was 0 patients (%) and the Pharyngitis streptococcal (24 mg, N = 15) was 0 patients (%). The Photophobia (24 mg, N = 15) was 0 patients (%), the Photopsia (24 mg, N = 15) was 0 patients (%) and the Plantar fasciitis (24 mg, N = 15) was 0 patients (%). The Pleurisy (24 mg, N = 15) was 0 patients (%), the Pneumonia (24 mg, N = 15) was 0 patients (%) and the Premenstrual syndrome (24 mg, N = 15) was 1 (6.7) patients (%). The Punctate keratitis (24 mg, N = 15) was 0 patients (%), the Pyrexia (24 mg, N = 15) was 1 (6.7) patients (%) and the Radius fracture (24 mg, N = 15) was 0 patients (%). The Rash (24 mg, N = 15) was 0 patients (%), the Rotator cuff syndrome (24 mg, N = 15) was 1 (6.7) patients (%) and the Sialoadenitis (24 mg, N = 15) was 0 patients (%). The Sinus congestion (24 mg, N = 15) was 1 (6.7) patients (%), the Sinusitis (24 mg, N = 15) was 0 patients (%) and the “Sjogren's syndrome” value (24 mg, N = 15) was 0 patients (%). The Skin infection (24 mg, N = 15) was 0 patients (%), the Subdural haematoma (24 mg, N = 15) was 0 patients (%) and the Syncope (24 mg, N = 15) was 1 (6.7) patients (%). For the same molecule, the Tendonitis (24 mg, N = 15) was 0 patients (%), the Thoracic outlet syndrome (24 mg, N = 15) was 0 patients (%) and the Tongue dry (24 mg, N = 15) was 0 patients (%). The Tooth abscess (24 mg, N = 15) was 1 (6.7) patients (%), the Tooth extraction (24 mg, N = 15) was 1 (6.7) patients (%) and the Toothache (24 mg, N = 15) was 0 patients (%). The “Upper respiratory tract infection” value (24 mg, N = 15) was 1 (6.7) patients (%), the Vision blurred (24 mg, N = 15) was 0 patients (%) and the Visual field defect (24 mg, N = 15) was 0 patients (%). For the same molecule, the Visual impairment (24 mg, N = 15) was 0 patients (%), the “Vitamin B12 deficiency” value (24 mg, N = 15) was 0 patients (%) and the “Vitamin D decreased” value (24 mg, N = 15) was 1 (6.7) patients (%). The Vitreous floaters (24 mg, N = 15) was 0 patients (%), the Vulvovaginal candidiasis (24 mg, N = 15) was 1 (6.7) patients (%) and the Wrist fracture (24 mg, N = 15) was 0 patients (%). The Xanthelasma (24 mg, N = 15) was 1 (6.7) patients (%), the elevated intracranial pressure (24 mg, one patient) was “Elevated intracranial pressure was measured” and the “papilledema grade (modified Frisen scale) with elevated intracranial pressure” value (24 mg, one patient, resolved upon temporary interruption and acetazolamide) was “Grade 1”. For the same molecule, the Abdominal discomfort (crossover, N = 10) was 1 (10.0) patients (%), the Abdominal distension (crossover, N = 10) was 0 patients (%) and the Abdominal pain upper (crossover, N = 10) was 0 patients (%). The Abnormal dreams (crossover, N = 10) was 0 patients (%), the “Adverse events, Overall” value (crossover, N = 10) was 8 (80) patients (%) and the Alanine aminotransferase increased (crossover, N = 10) was 1 (10.0) patients (%). The Alopecia (crossover, N = 10) was 0 patients (%), the Ankle fracture (crossover, N = 10) was 0 patients (%) and the Arthralgia (crossover, N = 10) was 1 (10.0) patients (%). The Arthritis (crossover, N = 10) was 1 (10.0) patients (%), the Aspartate aminotransferase increased (crossover, N = 10) was 1 (10.0) patients (%) and the Back injury (crossover, N = 10) was 0 patients (%). The Back pain (crossover, N = 10) was 0 patients (%), the Blepharospasm (crossover, N = 10) was 1 (10.0) patients (%) and the Blood cholesterol increased (crossover, N = 10) was 0 patients (%). For the same molecule, the Blood creatinine increased (crossover, N = 10) was 0 patients (%), the Blood iron decreased (crossover, N = 10) was 0 patients (%) and the Blood pressure increased (crossover, N = 10) was 0 patients (%). The Blood triglycerides increased (crossover, N = 10) was 0 patients (%), the Bowel movement irregularity (crossover, N = 10) was 0 patients (%) and the Bronchitis (crossover, N = 10) was 0 patients (%). The Cartilage injury (crossover, N = 10) was 0 patients (%), the Conjunctival laceration (crossover, N = 10) was 0 patients (%) and the Conjunctivitis (crossover, N = 10) was 0 patients (%). The Constipation (crossover, N = 10) was 0 patients (%), the Cough (crossover, N = 10) was 0 patients (%) and the Death (crossover, N = 10) was 0 patients (%). The Depression (crossover, N = 10) was 0 patients (%), the Diarrhoea (crossover, N = 10) was 1 (10.0) patients (%) and the Diplopia (crossover, N = 10) was 0 patients (%). The Dry eye (crossover, N = 10) was 0 patients (%), the Dry mouth (crossover, N = 10) was 0 patients (%) and the Dry skin (crossover, N = 10) was 0 patients (%). For the same molecule, the Ear discomfort (crossover, N = 10) was 0 patients (%), the Ear infection (crossover, N = 10) was 1 (10.0) patients (%) and the Ear pain (crossover, N = 10) was 0 patients (%). The Eczema (crossover, N = 10) was 1 (10.0) patients (%), the Electrocardiogram abnormal (crossover, N = 10) was 1 (10.0) patients (%) and the Erythema (crossover, N = 10) was 0 patients (%). The Eye irritation (crossover, N = 10) was 0 patients (%), the Eye pain (crossover, N = 10) was 0 patients (%) and the Eye pruritus (crossover, N = 10) was 0 patients (%). For the same molecule, the Face injury (crossover, N = 10) was 0 patients (%), the Faeces soft (crossover, N = 10) was 0 patients (%) and the Fall (crossover, N = 10) was 0 patients (%). For the same molecule, the Gastroenteritis (crossover, N = 10) was 1 (10.0) patients (%), the Gastroenteritis viral (crossover, N = 10) was 0 patients (%) and the Hair texture abnormal (crossover, N = 10) was 0 patients (%). For the same molecule, the Hand fracture (crossover, N = 10) was 0 patients (%), the Headache (crossover, N = 10) was 0 patients (%) and the Herpes zoster (crossover, N = 10) was 0 patients (%). The Hordeolum (crossover, N = 10) was 0 patients (%), the Hypertension (crossover, N = 10) was 0 patients (%) and the Hypobarism (crossover, N = 10) was 0 patients (%). For the same molecule, the Hypothyroidism (crossover, N = 10) was 0 patients (%), the Hysterectomy (crossover, N = 10) was 0 patients (%) and the Inflammation (crossover, N = 10) was 0 patients (%). The Influenza (crossover, N = 10) was 0 patients (%), the Insomnia (crossover, N = 10) was 0 patients (%) and the Intracranial pressure increased (crossover, N = 10) was 0 patients (%). The Irritability (crossover, N = 10) was 0 patients (%), the Jaw operation (crossover, N = 10) was 0 patients (%) and the Knee arthroplasty (crossover, N = 10) was 0 patients (%). The Laryngitis (crossover, N = 10) was 0 patients (%), the Lip swelling (crossover, N = 10) was 0 patients (%) and the “Low density lipoprotein increased” value (crossover, N = 10) was 0 patients (%). For the same molecule, the Muscle spasms (crossover, N = 10) was 0 patients (%), the Muscle strain (crossover, N = 10) was 0 patients (%) and the Musculoskeletal pain (crossover, N = 10) was 0 patients (%). The Nasopharyngitis (crossover, N = 10) was 1 (10.0) patients (%), the Nausea (crossover, N = 10) was 0 patients (%) and the Neck pain (crossover, N = 10) was 0 patients (%). For the same molecule, the Nephrolithiasis (crossover, N = 10) was 1 (10.0) patients (%), the Nerve compression (crossover, N = 10) was 0 patients (%) and the Neuralgia (crossover, N = 10) was 0 patients (%). For the same molecule, the Obsessive-compulsive disorder (crossover, N = 10) was 0 patients (%), the Oropharyngeal pain (crossover, N = 10) was 1 (10.0) patients (%) and the Osteoporosis (crossover, N = 10) was 0 patients (%). The Pain (crossover, N = 10) was 0 patients (%), the Pain in extremity (crossover, N = 10) was 0 patients (%) and the Pain in jaw (crossover, N = 10) was 0 patients (%). The Peripheral coldness (crossover, N = 10) was 0 patients (%), the Pharyngitis streptococcal (crossover, N = 10) was 0 patients (%) and the Photophobia (crossover, N = 10) was 0 patients (%). The Photopsia (crossover, N = 10) was 0 patients (%), the Plantar fasciitis (crossover, N = 10) was 0 patients (%) and the Pleurisy (crossover, N = 10) was 1 (10.0) patients (%). For the same molecule, the Pneumonia (crossover, N = 10) was 1 (10.0) patients (%), the Premenstrual syndrome (crossover, N = 10) was 0 patients (%) and the Punctate keratitis (crossover, N = 10) was 0 patients (%). For the same molecule, the Pyrexia (crossover, N = 10) was 0 patients (%), the Radius fracture (crossover, N = 10) was 0 patients (%) and the Rash (crossover, N = 10) was 1 (10.0) patients (%). For the same molecule, the Rotator cuff syndrome (crossover, N = 10) was 0 patients (%), the Sialoadenitis (crossover, N = 10) was 0 patients (%) and the Sinus congestion (crossover, N = 10) was 0 patients (%). For the same molecule, the Sinusitis (crossover, N = 10) was 0 patients (%), the “Sjogren's syndrome” value (crossover, N = 10) was 0 patients (%) and the Skin infection (crossover, N = 10) was 0 patients (%). The Subdural haematoma (crossover, N = 10) was 0 patients (%), the Syncope (crossover, N = 10) was 0 patients (%) and the Tendonitis (crossover, N = 10) was 0 patients (%). For the same molecule, the Thoracic outlet syndrome (crossover, N = 10) was 0 patients (%), the Tongue dry (crossover, N = 10) was 0 patients (%) and the Tooth abscess (crossover, N = 10) was 0 patients (%). The Tooth extraction (crossover, N = 10) was 0 patients (%), the Toothache (crossover, N = 10) was 0 patients (%) and the “Upper respiratory tract infection” value (crossover, N = 10) was 2 (20.0) patients (%). The Vision blurred (crossover, N = 10) was 1 (10.0) patients (%), the Visual field defect (crossover, N = 10) was 1 (10.0) patients (%) and the Visual impairment (crossover, N = 10) was 0 patients (%). The “Vitamin B12 deficiency” value (crossover, N = 10) was 0 patients (%), the “Vitamin D decreased” value (crossover, N = 10) was 0 patients (%) and the Vitreous floaters (crossover, N = 10) was 1 (10.0) patients (%). The Vulvovaginal candidiasis (crossover, N = 10) was 0 patients (%), the Wrist fracture (crossover, N = 10) was 0 patients (%) and the Xanthelasma (crossover, N = 10) was 0 patients (%).
